Results published in patent publication US20230000849A1, “INHIBITION OF SMARCA2 FOR TREATMENT OF CANCER” (Epizyme, Inc., priority 2017, published 2023).
“Also recorded” adds a separate entry of the source.

Tests used:
SMARCA2 = SMARCA2 (Homo sapiens, UniProt P51531); assay: SMARCA2 ATPase activity inhibition by known bromodomain inhibitors (HTS ADP-Glo bioluminescent format); format: biochemical; conditions: read-out: % inh SMARCA2 at 10 nM
Method: As such, the development of viable antagonists or inhibitors (i.e., ATPase inhibitors) requires methods of monitoring ATPase activity.
The signal to background ratio, ATPase activity as a function of protein concentration, and the dependence of ATP activity on mononucleosome substrate were determined for the isolated full length SMARCA2 and SMARACA4 in a high throughput screening bioluminescent assay (HTS ADP-Glo™ format).

SMACA2 = SMACA2 (Homo sapiens, UniProt P51531); assay: PFI-3 binding to SMARCA2 (FIG. 6A)
[1] = test system: SMARCA4 wild-type or mutant cell lines; assay: Cell growth in SMARCA4 wild-type or mutant cell lines (FIG. 6B); format: cell-based; conditions: SMARCA4-wt or mutant cell lines
Excerpt: FIGS. 6A and 6B are a series of graphs illustrating antiproliferative effects of bromodomain inhibitor PFI-3.

SMARCA2, sequence (P51531 whole entry): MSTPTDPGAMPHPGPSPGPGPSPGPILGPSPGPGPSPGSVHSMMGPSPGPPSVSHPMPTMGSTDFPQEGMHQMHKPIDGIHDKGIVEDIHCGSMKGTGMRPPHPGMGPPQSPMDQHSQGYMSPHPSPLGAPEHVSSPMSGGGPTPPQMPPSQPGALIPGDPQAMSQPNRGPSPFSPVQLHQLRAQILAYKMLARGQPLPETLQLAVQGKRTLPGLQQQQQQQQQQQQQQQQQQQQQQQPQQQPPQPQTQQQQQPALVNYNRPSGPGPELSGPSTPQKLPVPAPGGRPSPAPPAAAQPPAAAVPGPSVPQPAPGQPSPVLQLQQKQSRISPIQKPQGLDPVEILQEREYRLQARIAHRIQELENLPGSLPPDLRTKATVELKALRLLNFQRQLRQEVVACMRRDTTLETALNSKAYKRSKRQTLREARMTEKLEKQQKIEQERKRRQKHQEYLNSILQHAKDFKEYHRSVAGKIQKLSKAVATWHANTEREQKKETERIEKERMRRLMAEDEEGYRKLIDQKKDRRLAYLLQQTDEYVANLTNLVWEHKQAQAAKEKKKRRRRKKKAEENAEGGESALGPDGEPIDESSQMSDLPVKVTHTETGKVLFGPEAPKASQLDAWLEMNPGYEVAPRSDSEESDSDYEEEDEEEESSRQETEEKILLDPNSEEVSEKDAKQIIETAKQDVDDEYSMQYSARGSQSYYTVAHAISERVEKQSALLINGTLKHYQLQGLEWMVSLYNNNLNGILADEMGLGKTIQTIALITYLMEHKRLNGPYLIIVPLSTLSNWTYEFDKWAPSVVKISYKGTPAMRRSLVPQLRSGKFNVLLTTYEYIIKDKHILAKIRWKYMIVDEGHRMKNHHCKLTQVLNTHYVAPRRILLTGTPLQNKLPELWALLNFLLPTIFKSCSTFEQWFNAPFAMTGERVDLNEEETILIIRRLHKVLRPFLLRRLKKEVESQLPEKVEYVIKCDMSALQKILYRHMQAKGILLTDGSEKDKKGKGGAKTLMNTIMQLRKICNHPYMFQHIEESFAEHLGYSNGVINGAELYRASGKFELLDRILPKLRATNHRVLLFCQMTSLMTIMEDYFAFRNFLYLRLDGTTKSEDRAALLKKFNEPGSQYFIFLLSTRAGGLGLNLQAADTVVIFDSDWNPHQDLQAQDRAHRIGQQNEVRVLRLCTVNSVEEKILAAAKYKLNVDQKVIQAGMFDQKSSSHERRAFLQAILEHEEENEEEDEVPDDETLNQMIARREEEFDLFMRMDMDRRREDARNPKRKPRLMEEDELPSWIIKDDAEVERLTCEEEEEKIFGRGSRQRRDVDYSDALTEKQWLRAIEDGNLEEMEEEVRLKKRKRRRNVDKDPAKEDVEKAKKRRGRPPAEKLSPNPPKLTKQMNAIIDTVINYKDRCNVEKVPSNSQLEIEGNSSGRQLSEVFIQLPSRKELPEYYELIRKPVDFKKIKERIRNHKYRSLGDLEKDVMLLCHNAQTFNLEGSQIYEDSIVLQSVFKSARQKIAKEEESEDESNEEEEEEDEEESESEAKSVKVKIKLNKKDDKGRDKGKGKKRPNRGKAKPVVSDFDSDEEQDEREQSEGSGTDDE
SMACA2, sequence (P51531 whole entry): as above

O=C(/C=C/N1C[C@H]2C[C@@H]1CN2c1ccccn1)c1ccccc1O [PFI3]
inhibition at 0.01 µM (SMARCA2): 5%
binding affinity to SMARCA2 (SMACA2): nanomolar affinity
effect on cell growth [1]: no functional effect; also recorded: does not impact cell growth
